Test results from publication PMC5814754, “Quantitative, Wide-Spectrum Kinase Profiling in Live Cells for Assessing the Effect of Cellular ATP on Target Engagement” (Cell Chemical Biology, 2018).

Assays:
Test in all cases: Apparent affinity (EC50) of energy transfer probes by titration onto live HEK293 cells expressing kinase/Nluc fusions (Table S1)
Assay type in all cases: binding
[1] = molecular target: full-length kinase/Nluc fusion proteins (Homo sapiens, UniProt O43353); conditions: RIPK2 (NP_003812), Nluc orientation N; read-out: Probe EC50
[2] = molecular target: full-length kinase/Nluc fusion proteins (Homo sapiens, UniProt P54760); conditions: EPHB4, Nluc C; read-out: Probe EC50
[3] = molecular target: full-length kinase/Nluc fusion proteins (Homo sapiens, UniProt P42680); conditions: TEC (NP_003206), Nluc orientation N; read-out: Probe EC50
[4] = molecular target: full-length kinase/Nluc fusion proteins (Homo sapiens, UniProt P09619); conditions: PDGFRB, Nluc C; read-out: Probe EC50
[5] = molecular target: full-length kinase/Nluc fusion proteins (Homo sapiens, UniProt P54756); conditions: EPHA5, Nluc C; read-out: Probe EC50
[6] = molecular target: full-length kinase/Nluc fusion proteins (Homo sapiens, UniProt P51451); conditions: BLK, Nluc N; read-out: Probe EC50
[7] = molecular target: full-length kinase/Nluc fusion proteins (Homo sapiens, UniProt P21709); conditions: EPHA1, Nluc C; read-out: Probe EC50
[8] = molecular target: full-length kinase/Nluc fusion proteins (Homo sapiens, UniProt Q02763); conditions: TEK (NP_000450), Nluc orientation C; read-out: Probe EC50
[9] = molecular target: full-length kinase/Nluc fusion proteins (Homo sapiens, UniProt P11309); conditions: PIM1, Nluc C; read-out: Probe EC50
[10] = molecular target: full-length kinase/Nluc fusion proteins (Homo sapiens, UniProt O75676); conditions: RPS6KA4 (NP_001287731), Nluc orientation N; read-out: Probe EC50
[11] = molecular target: full-length kinase/Nluc fusion proteins (Homo sapiens, UniProt Q14680); conditions: MELK, Nluc N; read-out: Probe EC50
[12] = molecular target: full-length kinase/Nluc fusion proteins (Homo sapiens, UniProt Q16620); conditions: NTRK2, Nluc C; read-out: Probe EC50
[13] = molecular target: full-length kinase/Nluc fusion proteins (Homo sapiens, UniProt P49759); conditions: CLK1, Nluc N; read-out: Probe EC50
[14] = molecular target: full-length kinase/Nluc fusion proteins (Homo sapiens, UniProt Q9NWZ3); conditions: IRAK4, Nluc C; read-out: Probe EC50
[15] = molecular target: full-length kinase/Nluc fusion proteins (Homo sapiens, UniProt Q9UK32); conditions: RPS6KA6 (NP_055311), Nluc orientation N; read-out: Probe EC50
[16] = molecular target: full-length kinase/Nluc fusion proteins (Homo sapiens, UniProt Q13470); conditions: TNK1 (NP_003976), Nluc orientation N; read-out: Probe EC50
[17] = molecular target: full-length kinase/Nluc fusion proteins (Homo sapiens, UniProt O14936); conditions: CASK, Nluc N; read-out: Probe EC50
[18] = molecular target: full-length kinase/Nluc fusion proteins (Homo sapiens, UniProt P45984); conditions: MAPK9, Nluc N; read-out: Probe EC50
[19] = molecular target: full-length kinase/Nluc fusion proteins (Homo sapiens, UniProt P50613); conditions: CDK7, Nluc C; read-out: Probe EC50
[20] = molecular target: full-length kinase/Nluc fusion proteins (Homo sapiens, UniProt Q8IVH8); conditions: MAP4K3, Nluc N; read-out: Probe EC50
[21] = molecular target: full-length kinase/Nluc fusion proteins (Homo sapiens, UniProt Q02156); conditions: PRKCE, Nluc C; read-out: Probe EC50
[22] = molecular target: full-length kinase/Nluc fusion proteins (Homo sapiens, UniProt Q7KZI7); conditions: MARK2, Nluc N; read-out: Probe EC50
[23] = molecular target: full-length kinase/Nluc fusion proteins (Homo sapiens, UniProt P22455); conditions: FGFR4, Nluc C; read-out: Probe EC50
[24] = molecular target: full-length kinase/Nluc fusion proteins (Homo sapiens, UniProt Q02779); conditions: MAP3K10, Nluc N; read-out: Probe EC50
[25] = molecular target: full-length kinase/Nluc fusion proteins (Homo sapiens, UniProt P51955); conditions: NEK2, Nluc N; read-out: Probe EC50
[26] = molecular target: full-length kinase/Nluc fusion proteins (Homo sapiens, UniProt O60674); conditions: JAK2, Nluc C; read-out: Probe EC50
[27] = molecular target: full-length kinase/Nluc fusion proteins (Homo sapiens, UniProt P16591); conditions: FER, Nluc C; read-out: Probe EC50
[28] = molecular target: full-length kinase/Nluc fusion proteins (Homo sapiens, UniProt Q96PY6); conditions: NEK1, Nluc N; read-out: Probe EC50
[29] = molecular target: full-length kinase/Nluc fusion proteins (Homo sapiens, UniProt Q9P286); conditions: PAK7, Nluc C; read-out: Probe EC50
[30] = molecular target: full-length kinase/Nluc fusion proteins (Homo sapiens, UniProt Q16584); conditions: MAP3K11, Nluc N; read-out: Probe EC50
[31] = molecular target: full-length kinase/Nluc fusion proteins (Homo sapiens, UniProt Q9UM73); conditions: ALK, Nluc C; read-out: Probe EC50
[32] = molecular target: full-length kinase/Nluc fusion proteins (Homo sapiens, UniProt Q15831); conditions: STK11 (NP_000446), Nluc orientation N; read-out: Probe EC50
full-length kinase/Nluc fusion proteins (Homo sapiens, UniProt Q15831), sequence (Q15831 whole entry, the tested form may be a part): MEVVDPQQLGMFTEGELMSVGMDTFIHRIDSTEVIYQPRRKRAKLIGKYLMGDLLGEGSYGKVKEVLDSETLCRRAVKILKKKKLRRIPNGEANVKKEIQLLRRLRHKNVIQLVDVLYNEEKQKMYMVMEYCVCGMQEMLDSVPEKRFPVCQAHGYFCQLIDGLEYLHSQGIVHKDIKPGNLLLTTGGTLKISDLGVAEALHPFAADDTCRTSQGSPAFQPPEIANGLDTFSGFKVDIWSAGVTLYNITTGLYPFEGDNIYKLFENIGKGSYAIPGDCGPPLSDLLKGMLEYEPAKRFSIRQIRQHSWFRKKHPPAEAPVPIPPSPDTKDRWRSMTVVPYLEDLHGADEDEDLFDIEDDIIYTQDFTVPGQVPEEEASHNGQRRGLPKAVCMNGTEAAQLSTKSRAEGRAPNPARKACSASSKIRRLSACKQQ

full-length kinase/Nluc fusion proteins (Homo sapiens, UniProt P11309), sequence (P11309 whole entry, the tested form may be a part): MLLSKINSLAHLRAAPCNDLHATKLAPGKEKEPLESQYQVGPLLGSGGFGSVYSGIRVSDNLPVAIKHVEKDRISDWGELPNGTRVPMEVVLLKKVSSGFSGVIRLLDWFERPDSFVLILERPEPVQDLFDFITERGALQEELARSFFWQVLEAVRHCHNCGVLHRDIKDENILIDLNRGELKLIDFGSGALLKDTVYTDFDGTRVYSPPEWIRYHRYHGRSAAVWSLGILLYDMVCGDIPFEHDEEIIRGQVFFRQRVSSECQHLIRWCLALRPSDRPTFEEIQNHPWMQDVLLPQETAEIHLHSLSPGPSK
full-length kinase/Nluc fusion proteins (Homo sapiens, UniProt Q02763), sequence (Q02763 23-1124): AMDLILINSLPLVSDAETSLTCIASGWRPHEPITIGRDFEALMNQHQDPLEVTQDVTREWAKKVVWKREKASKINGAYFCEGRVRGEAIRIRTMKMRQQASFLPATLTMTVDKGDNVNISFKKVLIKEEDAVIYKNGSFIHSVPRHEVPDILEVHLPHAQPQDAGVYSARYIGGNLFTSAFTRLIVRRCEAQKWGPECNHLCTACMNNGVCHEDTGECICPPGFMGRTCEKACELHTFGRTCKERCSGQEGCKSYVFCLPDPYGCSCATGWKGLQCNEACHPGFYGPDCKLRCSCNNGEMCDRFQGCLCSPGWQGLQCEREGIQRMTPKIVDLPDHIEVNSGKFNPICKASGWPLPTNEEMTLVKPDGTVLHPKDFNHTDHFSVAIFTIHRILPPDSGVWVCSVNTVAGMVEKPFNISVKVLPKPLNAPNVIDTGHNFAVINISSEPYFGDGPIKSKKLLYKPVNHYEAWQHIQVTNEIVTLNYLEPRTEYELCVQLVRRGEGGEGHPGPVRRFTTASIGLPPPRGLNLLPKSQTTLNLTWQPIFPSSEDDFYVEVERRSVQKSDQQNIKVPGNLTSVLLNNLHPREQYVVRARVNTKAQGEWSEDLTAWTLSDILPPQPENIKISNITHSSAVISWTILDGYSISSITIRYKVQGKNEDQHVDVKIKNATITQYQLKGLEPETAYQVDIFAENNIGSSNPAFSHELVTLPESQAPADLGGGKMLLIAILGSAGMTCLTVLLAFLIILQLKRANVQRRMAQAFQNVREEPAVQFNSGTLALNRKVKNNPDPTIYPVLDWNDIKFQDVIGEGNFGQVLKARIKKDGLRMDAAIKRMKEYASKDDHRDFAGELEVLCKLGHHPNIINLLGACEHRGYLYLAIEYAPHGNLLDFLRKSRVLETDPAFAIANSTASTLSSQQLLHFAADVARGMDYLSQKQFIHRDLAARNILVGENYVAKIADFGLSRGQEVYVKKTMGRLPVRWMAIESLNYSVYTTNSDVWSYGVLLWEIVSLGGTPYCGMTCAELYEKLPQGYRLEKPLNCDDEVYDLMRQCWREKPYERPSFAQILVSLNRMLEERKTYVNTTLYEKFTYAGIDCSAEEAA
full-length kinase/Nluc fusion proteins (Homo sapiens, UniProt Q16620), sequence (Q16620 32-822): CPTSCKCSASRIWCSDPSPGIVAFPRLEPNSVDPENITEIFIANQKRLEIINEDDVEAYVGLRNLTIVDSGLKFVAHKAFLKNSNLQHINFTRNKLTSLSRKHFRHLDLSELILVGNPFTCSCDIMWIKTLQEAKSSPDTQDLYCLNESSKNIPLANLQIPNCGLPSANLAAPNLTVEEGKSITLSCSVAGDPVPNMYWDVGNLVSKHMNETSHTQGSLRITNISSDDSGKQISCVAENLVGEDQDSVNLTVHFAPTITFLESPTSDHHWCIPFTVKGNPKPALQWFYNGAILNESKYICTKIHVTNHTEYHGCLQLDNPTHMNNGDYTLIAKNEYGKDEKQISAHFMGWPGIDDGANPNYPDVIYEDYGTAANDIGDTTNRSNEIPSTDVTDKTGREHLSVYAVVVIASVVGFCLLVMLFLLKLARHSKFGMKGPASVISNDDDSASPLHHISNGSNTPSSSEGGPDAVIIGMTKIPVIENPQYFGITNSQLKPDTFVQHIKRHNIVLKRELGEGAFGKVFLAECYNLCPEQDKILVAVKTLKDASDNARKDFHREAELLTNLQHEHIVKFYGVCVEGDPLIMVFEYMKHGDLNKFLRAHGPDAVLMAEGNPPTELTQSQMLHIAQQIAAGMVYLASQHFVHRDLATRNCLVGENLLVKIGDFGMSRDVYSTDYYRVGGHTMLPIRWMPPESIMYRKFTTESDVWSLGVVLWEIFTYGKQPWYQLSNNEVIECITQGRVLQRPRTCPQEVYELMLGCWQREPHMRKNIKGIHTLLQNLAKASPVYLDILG
full-length kinase/Nluc fusion proteins (Homo sapiens, UniProt O14936), sequence (O14936 whole entry, the tested form may be a part): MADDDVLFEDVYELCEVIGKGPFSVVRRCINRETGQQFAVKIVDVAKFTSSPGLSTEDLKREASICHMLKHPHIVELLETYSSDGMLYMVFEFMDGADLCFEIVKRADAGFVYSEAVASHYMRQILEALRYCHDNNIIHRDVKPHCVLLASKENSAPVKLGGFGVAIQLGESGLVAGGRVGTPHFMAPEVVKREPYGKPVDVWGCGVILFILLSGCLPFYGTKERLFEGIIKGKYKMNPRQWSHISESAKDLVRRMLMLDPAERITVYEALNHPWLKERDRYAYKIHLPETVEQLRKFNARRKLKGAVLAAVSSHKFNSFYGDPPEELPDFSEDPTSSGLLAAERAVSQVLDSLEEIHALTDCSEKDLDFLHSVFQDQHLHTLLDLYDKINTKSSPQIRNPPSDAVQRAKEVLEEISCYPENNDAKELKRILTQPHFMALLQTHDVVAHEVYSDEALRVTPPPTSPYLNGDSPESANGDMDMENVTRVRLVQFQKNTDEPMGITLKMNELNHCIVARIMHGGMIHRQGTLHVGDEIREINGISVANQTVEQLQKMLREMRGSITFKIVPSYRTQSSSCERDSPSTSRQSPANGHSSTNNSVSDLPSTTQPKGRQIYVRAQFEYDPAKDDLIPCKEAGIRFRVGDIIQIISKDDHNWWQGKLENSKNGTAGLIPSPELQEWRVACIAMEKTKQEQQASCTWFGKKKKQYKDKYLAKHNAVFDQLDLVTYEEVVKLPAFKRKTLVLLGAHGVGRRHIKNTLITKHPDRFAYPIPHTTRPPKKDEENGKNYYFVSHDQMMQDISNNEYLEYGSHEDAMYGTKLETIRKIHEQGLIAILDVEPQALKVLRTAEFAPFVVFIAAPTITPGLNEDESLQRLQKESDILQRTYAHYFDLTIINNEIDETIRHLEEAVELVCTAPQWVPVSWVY
full-length kinase/Nluc fusion proteins (Homo sapiens, UniProt O43353), sequence (O43353 whole entry, the tested form may be a part): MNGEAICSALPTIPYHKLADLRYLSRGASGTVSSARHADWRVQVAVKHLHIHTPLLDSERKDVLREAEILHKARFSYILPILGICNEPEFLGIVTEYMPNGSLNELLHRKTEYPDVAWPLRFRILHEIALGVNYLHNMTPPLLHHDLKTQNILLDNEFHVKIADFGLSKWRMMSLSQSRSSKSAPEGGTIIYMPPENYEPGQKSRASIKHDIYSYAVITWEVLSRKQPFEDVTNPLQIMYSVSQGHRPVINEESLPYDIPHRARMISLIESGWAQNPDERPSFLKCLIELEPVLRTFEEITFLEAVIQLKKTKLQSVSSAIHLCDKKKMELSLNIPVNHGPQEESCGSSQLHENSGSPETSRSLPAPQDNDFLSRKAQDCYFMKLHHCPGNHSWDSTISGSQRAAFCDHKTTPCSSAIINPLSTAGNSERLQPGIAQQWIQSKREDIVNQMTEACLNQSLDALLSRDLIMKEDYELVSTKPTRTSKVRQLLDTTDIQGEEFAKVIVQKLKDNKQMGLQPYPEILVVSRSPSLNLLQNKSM
full-length kinase/Nluc fusion proteins (Homo sapiens, UniProt P50613), sequence (P50613 whole entry, the tested form may be a part): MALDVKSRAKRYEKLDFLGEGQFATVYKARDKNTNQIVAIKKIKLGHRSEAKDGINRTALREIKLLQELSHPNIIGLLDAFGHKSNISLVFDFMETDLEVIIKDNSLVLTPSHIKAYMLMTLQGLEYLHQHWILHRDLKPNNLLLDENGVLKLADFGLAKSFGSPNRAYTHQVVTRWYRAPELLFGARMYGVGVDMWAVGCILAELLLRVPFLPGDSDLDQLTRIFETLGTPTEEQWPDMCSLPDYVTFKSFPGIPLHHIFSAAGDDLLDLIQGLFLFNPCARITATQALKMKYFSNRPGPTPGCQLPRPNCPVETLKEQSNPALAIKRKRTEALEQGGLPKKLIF
full-length kinase/Nluc fusion proteins (Homo sapiens, UniProt P51451), sequence (P51451 whole entry, the tested form may be a part): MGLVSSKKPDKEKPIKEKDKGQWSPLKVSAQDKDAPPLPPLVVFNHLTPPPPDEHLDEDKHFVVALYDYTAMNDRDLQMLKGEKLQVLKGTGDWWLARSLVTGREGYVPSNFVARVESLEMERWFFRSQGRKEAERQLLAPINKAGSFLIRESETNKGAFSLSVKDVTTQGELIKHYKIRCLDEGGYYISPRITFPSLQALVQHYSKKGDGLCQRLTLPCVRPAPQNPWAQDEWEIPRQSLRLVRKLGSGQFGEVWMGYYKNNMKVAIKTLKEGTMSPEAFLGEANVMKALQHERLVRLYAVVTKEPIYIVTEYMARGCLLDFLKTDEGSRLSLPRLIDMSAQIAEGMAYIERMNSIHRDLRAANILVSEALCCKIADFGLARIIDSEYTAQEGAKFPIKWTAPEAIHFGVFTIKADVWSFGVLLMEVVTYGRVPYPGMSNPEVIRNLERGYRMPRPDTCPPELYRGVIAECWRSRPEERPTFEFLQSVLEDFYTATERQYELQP

Compound: Cc1nc(Nc2ncc(C(=O)Nc3c(C)cccc3Cl)s2)cc(N2CCN(CCOCCNC(=O)CCc3ccc4n3[B-](F)(F)[N+]3=C(c5ccc[nH]5)C=CC3=C4)CC2)n1 [Energy Transfer Probe 6, 2-((6-(4-(2-(2-aminoethoxy)ethyl)piperazin-1-yl)-2-methylpyrimidin-4-yl)amino)-N-(2-chloro-6-methylphenyl)thiazole-5-carboxamide-NanoBRET 590]
- EC50 [1]: 200 nM
- EC50 [2]: 10 nM
- EC50 [3]: > 1000 nM
- EC50 [4]: 200 nM
- EC50 [5]: 30 nM
- EC50 [6]: 300 nM
- EC50 [7]: 300 nM

Compound: CNC(=O)c1ccccc1Nc1nc(Nc2ccc(N3CCN(C(=O)CCOCCOCCOCCOCCNC(=O)CCc4ccc5n4[B-](F)(F)[N+]4=C(c6ccc[nH]6)C=CC4=C5)CC3)cc2)ncc1Cl [Energy Transfer Probe 5, 2-((2-((4-(4-(1-amino-3,6,9,12-tetraoxapentadecan-15-oyl)piperazin-1-yl)phenyl)amino)-5-chloropyrimidin-4-yl)amino)-N-methylbenzamide-NanoBRET 590]
- EC50 [8]: 400 nM
- EC50 [9]: > 1000 nM
- EC50 [10]: 100 nM
- EC50 [11]: > 1000 nM
- EC50 [12]: 500 nM
- EC50 [13]: > 1000 nM
- EC50 [14]: > 1000 nM
- EC50 [15]: 400 nM
- EC50 [16]: 50 nM
- EC50 [17]: > 1000 nM
- EC50 [18]: 500 nM
- EC50 [19]: 300 nM
- EC50 [20]: > 1000 nM
- EC50 [21]: > 1000 nM
- EC50 [22]: > 1000 nM
- EC50 [23]: > 1000 nM
- EC50 [24]: > 1000 nM
- EC50 [25]: > 1000 nM
- EC50 [26]: > 1000 nM
- EC50 [27]: > 1000 nM
- EC50 [28]: > 1000 nM
- EC50 [29]: > 1000 nM
- EC50 [30]: > 1000 nM
- EC50 [31]: > 1000 nM
- EC50 [32]: > 1000 nM
